Laboratory results from patent US20070149555A1, “Prophylatic and/or therapeutic agents for chronic musculoskeletal pain” (Kyowa Hakko Kogyo Co., Ltd, priority 2004, published 2007).

Legend:
[1] = test system: hyperalgesia rats induced with an acidic physiological saline; test: Effect for pain relief in a hyperalgesia model of rat (acidic physiological saline-induced hyperalgesia, von Frey test); format: in vivo; details: male SD rats, orally administered 5 and 10 mg/kg, 0.5-3 hours after administration (FIG. 1)
Protocol: Test Example 1: Effect for Pain Relief in a Hyperalgesia Model of Rat
An acidic physiological saline-induced hyperalgesia model, which is known as a model of diseases accompanied by chronic musculoskeletal pain was made according to the method described in Muscle & Nerve 24, p. 37-46 (2001) with a slight modification.
In this test, male SD rats (Sprague-Dawley rats; 6 weeks of age at the start of the test) were employed. Under ether anesthesia, 100 μl of physiological saline adjusted to pH 4 with acetic acid was injected to the rat's right gastrocnemius muscle twice at an interval of 5 days. At 10th and 11th days from the 2nd injection, the following test was conducted. […] In this connection, the pain threshold of normal rats was approximately 11 g.
The above hyperalgesia rats induced with an acidic physiological saline were placed in a stainless steel cage (750width×210depth×170height in mm) and accommodated thereto for at least 20 minutes. Thereafter, the pain threshold (g) was determined prior to administration of the test compound (0 hour) and 0.5 hour, 1 hour, 1.5 hours, 2 hours and 3 hours after the administration. […]
Hyperalgesia was evaluated by the von Frey test, and the results were indicated by the thresholds (g). […] The pain threshold (g) was calculated according to the W. J. Dixon's up-down method (Annual Review of Pharmacology and Toxicology, 20, p. 441-462 (1980)).

[2] = test system: acidic physiological saline-induced hyperalgesia model; test: Preventive effect on development of hyperalgesia in a rat model (acidic physiological saline, von Frey test); format: in vivo; details: male SD rats, 3 mg/kg orally once daily for 10 days, measured on the day following the final administration (FIG. 2)
Protocol: Test Example 2: Preventive Effect on Development of Hyperalgesia in a Rat Model The following experiment was carried out according to the method as described in Test Example 1. In this test, male SD rats (Sprague-Dawley rats; 6 weeks of age at the start of the test) were employed as 10 rats for each treatment-group. Under ether anesthesia, 100 μl of physiological saline adjusted to pH 4 with acetic acid was injected to the rat's right gastrocnemius muscle twice at an interval of 5 days. Thirty minutes after the 2nd injection and once daily thereafter, a test compound or solvent was administered repeatedly at a volume of 5 ml/kg to the above rats for a total of 10 days. The test compound was used as a suspension in 0.5% MC aqueous solution and orally administered (a group treated with Test Compound), and in a group to which a solvent was administered 0.5% MC aqueous solution alone was orally administered (a group treated with Solvent). On the day following the final administration, the pain threshold (g) was measured in the same manner as the von Frey test as described in Test Example 1. The above rats were placed in a stainless steel cage (750width×210depth×170height in mm) and accommodated thereto for at least 20 minutes; after that the measurement was conducted. From the above results, the followings were elucidated.

CCn1c(=O)c2c(nc(/C=C/c3ccc(OC)c(OC)c3)n2C)n(CC)c1=O [Compound 2]
pain threshold in comparison with that of the group treated with Solvent [1]: greatly increased | pain threshold (development of hyperalgesia) [2]: no decrease
